From patent US20070072874A1, “Aminoheteroaryl compounds as protein kinase inhibitors” (Sugen, Inc., priority 2003, published 2007)

Target: T1, GST fusion protein containing the Met kinase domain (Homo sapiens, UniProt P08581)
T1 construct: Purified GST fusion protein containing the Met kinase domain, SUGEN, Inc
Assay: MET transphosphorylation assay (ELISA, poly(glu-tyr) substrate)
Assay type: biochemical
Settings: not given

T1 sequence (P08581 1078-1345 limits assumed): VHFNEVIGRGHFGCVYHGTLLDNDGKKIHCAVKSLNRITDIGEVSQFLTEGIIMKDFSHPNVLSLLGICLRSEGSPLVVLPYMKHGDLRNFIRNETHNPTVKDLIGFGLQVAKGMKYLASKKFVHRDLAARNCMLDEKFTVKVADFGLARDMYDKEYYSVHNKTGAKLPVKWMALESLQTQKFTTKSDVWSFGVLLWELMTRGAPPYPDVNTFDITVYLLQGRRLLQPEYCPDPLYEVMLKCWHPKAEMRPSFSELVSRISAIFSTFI

Compound	IC50 [nM]
CC(Oc1cc(C#CCNC(=O)CN2CCCC2)cnc1N)c1c(Cl)ccc(F)c1Cl (stereo not drawn) [Example I-426, N-(3-{6-Amino-5-[1-(2,6-dichloro-3-fluoro-phenyl)-ynyl)-2-pridin-1-y-ehoxy]-pyridin-3-yf}-prop-2-acetamide]	< 9.1
CC(Oc1cc(-c2ccc(C(=O)N3CCN(C)CC3)cn2)cnc1N)c1c(F)ccc(F)c1Cl (stereo not drawn) [Example I-517, {6′-Amino-5′-[1-(2-chloro-3,6-difluoro-phenyl)-ethoxy]-[2,3′]bipyridinyl-5-yl)-(4-methyl-piperazin-1-yl)-methanone]	131
Nc1ncc(-c2ccc(NS(=O)(=O)CCNC3CC3)cc2)nc1OCc1c(F)ccc(F)c1Cl [II-20, 2-Cyclopropylamino-ethanesulfonic acid {4-[5-amino-6-(2-chloro-3,6-difluoro-benzyloxy)-pyrazin-2-yl]-phenyl}-amide]	1200
CN(C)[C@H]1CCN(C(=O)c2cccc(-c3cnc(N)c(OCc4c(F)ccc(F)c4Cl)n3)c2)C1 [II-54, {3-[5-Amino-6-(2-chloro-3,6-difluoro-benzyloxy)-pyrazin-2-yl]-phenyl}-[(3S)-3-dimethylamino-pyrrolidin-1-yl]-methanone]	1450

More lines, now with the values ahead:

IC50 [nM]	Compound
680	CC(Oc1cc(-c2ccc(OCCN3CCCC3)cc2)cnc1N)c1c(Cl)ccc(F)c1Cl (stereo not drawn) [Example I-355, 3-[1-(2,6-Dichlaro-3-fluoro-phenyl)-ethoxy]-5-[4-(2-pyrrolidin-1-yl-ethoxy)-phenyl]-pyridin-2-ylamine]
790	CC(Oc1cc(-c2ccc(OCCC3CCCN3C)cc2)cnc1N)c1c(Cl)ccc(F)c1Cl (stereo not drawn) [Example I-356, 3-[1-(2,6-Dichloro-3-fluoro-phenyl)-ethoxy]-5-{4-(2-[1-methyl-pyrrolidin-2-yl)-ethoxy]-phenyl)-pyridin-2-ylamine]
> 20000	Nc1ncc(-c2cccnc2)cc1OCc1ccccc1 [Example I-489, 5-Benzyloxy-[3,3′]bipyridinyl-6-ylamine]
282	Nc1ncc(-c2cccnc2)cc1OCc1c(F)ccc(F)c1Cl [Example I-501, 5-(2-Chloro-3,6-difluoro-benzyloxy)-[3,3′]bipyridinyl-6-ylamine]

Same assay, conditions: Table 1; several values in one cell are separated by /

IC50 [nM]	Compound
> 20000	Nc1ncc(Br)cc1OCc1c(F)cccc1Cl [I(e), 5-Bromo-3-(2-chloro-6-fluoro-benzyloxy)-pyridin-2-ylamine]
